Assay results published in US20250101013A1, “FUNCTIONALIZED AMINOTHIAZOLES” (LEADXPRO AG, priority 2022, published 2025).

What was measured:
Format in all cases: cell-based
Conditions in all cases: HEK293 cells expressing recombinant human receptor
[1] = biological target: human A2B receptor (Homo sapiens (Human), UniProt P29275); assay: Intracellular cAMP functional assay (HTRF), A2B
Experimental: (§1) Compound activity in human adenosine receptors A2A, A2B, A1, and A3 was measured in this functional cellular assay using an HTRF kit (Perkin Elmer). […] Dose response curves were performed in parallel with the reference compounds. The reference compounds used for A2A, A2B, A1, and A3, were respectively NECA, ZM241385, DPCPX, MRS. 12 μl of cells were mixed with 6 μl of the test compound at increasing concentrations and then incubated 10 min. Thereafter 6 μl of the reference agonist was added at a final concentration corresponding to the historical EC80. The plates were then incubated for 30 min at room temperature. After addition of the lysis buffer and 1 hour incubation, cAMP concentrations were estimated, according to the manufacturer specification, with the HTRF kit. The results showing functional activity of embodied compounds on adenosine receptors are shown below in Table 1.

[2] = biological target: human A1 receptor (Homo sapiens (Human), UniProt P30542); assay: Intracellular cAMP functional assay (HTRF), A1
Experimental: as §1

[3] = biological target: human A3 receptor (Homo sapiens (Human), UniProt P0DMS8); assay: Intracellular cAMP functional assay (HTRF), A3
Experimental: as §1

[4] = biological target: human A2A receptor (Homo sapiens (Human), UniProt P29274); assay: Intracellular cAMP functional assay (HTRF), A2A
Experimental: as §1

Sequence of human A3 receptor (P0DMS8 whole entry): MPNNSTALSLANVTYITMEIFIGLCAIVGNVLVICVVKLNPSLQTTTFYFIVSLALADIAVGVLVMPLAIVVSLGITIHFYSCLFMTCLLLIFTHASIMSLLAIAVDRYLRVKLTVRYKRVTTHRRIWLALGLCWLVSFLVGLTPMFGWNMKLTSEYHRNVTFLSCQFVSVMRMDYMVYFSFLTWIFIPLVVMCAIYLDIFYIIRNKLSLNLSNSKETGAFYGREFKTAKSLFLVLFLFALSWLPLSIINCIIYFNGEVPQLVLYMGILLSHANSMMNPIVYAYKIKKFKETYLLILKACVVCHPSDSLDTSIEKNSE
Sequence of human A2B receptor (P29275 whole entry): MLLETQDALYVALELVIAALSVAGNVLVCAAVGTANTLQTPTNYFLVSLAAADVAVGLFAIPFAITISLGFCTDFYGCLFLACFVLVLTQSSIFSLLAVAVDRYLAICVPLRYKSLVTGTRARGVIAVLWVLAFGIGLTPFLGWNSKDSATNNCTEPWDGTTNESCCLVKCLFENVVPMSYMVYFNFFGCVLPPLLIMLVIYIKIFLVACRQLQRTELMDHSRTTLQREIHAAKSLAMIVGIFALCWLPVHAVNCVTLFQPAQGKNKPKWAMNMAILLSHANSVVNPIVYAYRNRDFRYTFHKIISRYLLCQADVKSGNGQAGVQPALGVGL
Sequence of human A1 receptor (P30542 whole entry): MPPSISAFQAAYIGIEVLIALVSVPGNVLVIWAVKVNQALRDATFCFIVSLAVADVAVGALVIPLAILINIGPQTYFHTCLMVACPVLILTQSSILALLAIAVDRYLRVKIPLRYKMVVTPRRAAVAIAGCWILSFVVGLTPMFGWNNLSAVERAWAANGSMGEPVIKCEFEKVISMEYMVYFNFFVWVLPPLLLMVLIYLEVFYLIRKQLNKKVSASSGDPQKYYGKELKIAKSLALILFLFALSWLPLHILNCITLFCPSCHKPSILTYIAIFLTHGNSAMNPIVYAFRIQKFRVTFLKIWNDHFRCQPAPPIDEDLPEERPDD
Sequence of human A2A receptor (P29274 whole entry): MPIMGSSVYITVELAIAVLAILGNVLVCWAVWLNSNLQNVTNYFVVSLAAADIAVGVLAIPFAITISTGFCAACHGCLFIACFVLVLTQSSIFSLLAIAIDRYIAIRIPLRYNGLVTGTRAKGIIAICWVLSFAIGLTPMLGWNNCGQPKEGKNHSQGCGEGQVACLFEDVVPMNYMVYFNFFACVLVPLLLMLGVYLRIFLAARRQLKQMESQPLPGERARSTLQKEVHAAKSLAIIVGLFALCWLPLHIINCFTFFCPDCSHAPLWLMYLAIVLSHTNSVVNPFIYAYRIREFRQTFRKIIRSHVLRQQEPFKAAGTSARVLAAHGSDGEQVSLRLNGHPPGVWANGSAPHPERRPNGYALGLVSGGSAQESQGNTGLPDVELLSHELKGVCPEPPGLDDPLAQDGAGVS

| Structure (SMILES) | EC50 [1] [nM] | EC50 [2] [nM] | EC50 [3] [nM] | EC50 [4] [nM] |
| --- | --- | --- | --- | --- |
| N#Cc1cccc(-c2nc(Nc3n[nH]c(C4CC4)n3)sc2-c2ccncc2F)c1 [Compound 2, 3-{2-[(5-cyclopropyl-1H-1,2,4-triazol-3-yl)amino]-5-(3-fluoropyridin-4-yl)-1,3-thiazol-4-yl}benzonitrile] | 0.3 | 0.78 | > 20000 | 78.9 |
| Cc1cnccc1-c1sc(Nc2n[nH]c(C3CC3)n2)nc1-c1cccc(C#N)c1 [Compound 3, 3-{2-[(5-Cyclopropyl-1H-1,2,4-Triazol-3-Yl)Amino]-5-(3-Methylpyridin-4-Yl)-1,3-Thiazol-4-Yl}Benzonitrile] | 0.38 | 1.8 | > 20000 | 119 |
| Cc1cc(-c2sc(Nc3n[nH]c(C4CC4)n3)nc2-c2cccc(C#N)c2)c(C)cn1 [Compound 4, 3-{2-[(5-Cyclopropyl-1H-1,2,4-Triazol-3-Yl)Amino]-5-(2,5-Dimethylpyridin-4-Yl)-1,3-Thiazol-4-Yl}Benzonitrile] | 0.99 | 16.4 | > 20000 | 3890 |
| N#Cc1cccc(-c2nc(Nc3n[nH]c(C4CC4)n3)sc2-c2ccncc2Cl)c1 [Compound 5, 3-[5-(3-Chloropyridin-4-Yl)-2-[(5-Cyclopropyl-1H-1,2,4-Triazol-3-Yl)Amino]-1,3-Thiazol-4-Yl]Benzonitrile] | 0.76 | 2.3 | 2350 | 478 |
| Cc1nccc(-c2sc(Nc3n[nH]c(C4CC4)n3)nc2-c2cccc(C#N)c2)c1C [Compound 6, 3-{2-[(5-Cyclopropyl-1H-1,2,4-Triazol-3-Yl)Amino]-5-(2,3-Dimethylpyridin-4-Yl)-1,3-Thiazol-4-Yl}Benzonitrile] | 0.84 | 1.2 | 2060 | 206 |
| Cc1cc(-c2sc(Nc3n[nH]c(C4CC4)n3)nc2-c2cccc(C#N)c2)ccn1 [Compound 7, 3-{2-[(5-Cyclopropyl-1H-1,2,4-Triazol-3-Yl)Amino]-5-(2-Methylpyridin-4-Yl)-1,3-Thiazol-4-Yl}Benzonitrile] | 1.4 | 1.7 | 1740 | 24.4 |
| Cc1nccn1-c1sc(Nc2n[nH]c(C3CC3)n2)nc1-c1cccc(C#N)c1 [Compound 8, 3-{2-[(5-Cyclopropyl-1H-1,2,4-Triazol-3-Yl)Amino]-5-(2-Methyl-1H-Imidazol-1-Yl)-1,3-Thiazol-4-Yl}Benzonitrile] | 2.9 | 107 | > 20000 | > 10000 |
| Cc1nccn1-c1sc(Nc2nc[nH]n2)nc1-c1cccc(C#N)c1 [Compound 9, 3-[5-(2-Methyl-1H-Imidazol-1-Yl)-2-[(1H-1,2,4-Triazol-3-Yl)Amino]-1,3-Thiazol-4-Yl]Benzonitrile] | 3.3 | 145 | 2350 | > 10000 |
| Cc1cc(-c2sc(Nc3n[nH]c(C)n3)nc2-c2cccc(C#N)c2)c(C)cn1 [Compound 13, 3-[5-(2,5-Dimethylpyridin-4-Yl)-2-[(5-Methyl-1H-1,2,4-Triazol-3-Yl)Amino]-1,3-Thiazol-4-Yl]Benzonitrile] | 2.8 | 65 | > 20000 | > 10000 |
| Cc1cc(-c2sc(Nc3n[nH]c(CO)n3)nc2-c2cccc(C#N)c2)c(C)cn1 [Compound 14, 3-[5-(2,5-Dimethylpyridin-4-Yl)-2-{[5-(Hydroxymethyl)-1H-1,2,4-Triazol-3-Yl]Amino}-1,3-Thiazol-4-Yl]Benzonitrile] | 3 | 36.1 | > 20000 | > 10000 |
| CCc1nccn1-c1sc(Nc2n[nH]c(C)n2)nc1-c1cccc(C#N)c1 [Compound 16, 3-[5-(2-Ethyl-1H-Imidazol-1-Yl)-2-[(5-Methyl-1H-1,2,4-Triazol-3-Yl)Amino]-1,3-Thiazol-4-Yl]Benzonitrile] | 2.2 |  |  | 61 |
| N#Cc1cccc(-c2nc(Nc3n[nH]c(C4CC4)n3)sc2-n2ccnc2CO)c1 [Compound 17, 3-{2-[(5-Cyclopropyl-1H-1,2,4-Triazol-3-Yl)Amino]-5-[2-(Hydroxymethyl)-1H-Imidazol-1-Yl]-1,3-Thiazol-4-Yl}Benzonitrile] | 2.4 |  |  | 100 |
| Cc1nccn1-c1sc(Nc2n[nH]c(C3CC3)n2)nc1-c1cc(C#N)ccc1F [Compound 18, 3-{2-[(5-Cyclopropyl-1H-1,2,4-Triazol-3-Yl)Amino]-5-(2-Methyl-1H-Imidazol-1-Yl)-1,3-Thiazol-4-Yl}-4-Fluorobenzonitrile] | 33.4 |  |  | > 10000 |
| N#Cc1cccc(-c2nc(Nc3nc[nH]n3)sc2-n2ccnc2CO)c1 [Compound 19, 3-{5-[2-(Hydroxymethyl)-1H-Imidazol-1-Yl]-2-[(1H-1,2,4-Triazol-3-Yl)Amino]-1,3-Thiazol-4-Yl}Benzonitrile] | 2.01 | 885 | > 3400 | 5760 |
| CCc1nc(Nc2nc(-c3cccc(C#N)c3)c(-n3ccnc3CO)s2)n[nH]1 [Compound 20, 3-{2-[(5-Ethyl-1H-1,2,4-Triazol-3-Yl)Amino]-5-[2-(Hydroxymethyl)-1H-Imidazol-1-Yl]-1,3-Thiazol-4-Yl}Benzonitrile] | 1.26 | 360 | > 30000 | 3410 |
| Cc1nc(Nc2nc(-c3cccc(C#N)c3)c(-n3ccnc3CO)s2)n[nH]1 [Compound 21, 3-{5-[2-(Hydroxymethyl)-1H-Imidazol-1-Yl]-2-[(5-Methyl-1H-1,2,4-Triazol-3-Yl)Amino]-1,3-Thiazol-4-Yl}Benzonitrile] | 1.64 | > 30000 | > 30000 | 6980 |
| Cc1cnccc1-c1sc(Nc2nc[nH]n2)nc1-c1cccc(C#N)c1 [Compound 22, 3-{5-(3-Methylpyridin-4-Yl)-2-[(1H-1,2,4-Triazol-3-Yl)Amino]-1,3-Thiazol-4-Yl}Benzonitrile] | 0.6 | 2.3 | > 30000 |  |
| Cc1cnncc1-c1sc(Nc2n[nH]c(C3CC3)n2)nc1-c1cccc(C#N)c1 [Compound 23, 3-{2-[(5-Cyclopropyl-1H-1,2,4-Triazol-3-Yl)Amino]-5-(5-Methylpyridazin-4-Yl)-1,3-Thiazol-4-Yl}Benzonitrile] | 6.7 | 115 | > 30000 |  |
| N#Cc1cccc(-c2nc(Nc3n[nH]c(C4CC4)n3)sc2-c2ccncn2)c1 [Compound 24, 3-{2-[(5-Cyclopropyl-1H-1,2,4-Triazol-3-Yl)Amino]-5-(Pyrimidin-4-Yl)-1,3-Thiazol-4-Yl}Benzonitrile] | 2.3 | 24.1 | > 30000 |  |
| N#Cc1cccc(-c2nc(Nc3n[nH]c(C4CC4)n3)sc2-c2ccnnc2)c1 [Compound 25, 3-{2-[(5-Cyclopropyl-1H-1,2,4-Triazol-3-Yl)Amino]-5-(Pyridazin-4-Yl)-1,3-Thiazol-4-Yl}Benzonitrile] | 2.4 | 2.6 | > 30000 |  |
| N#Cc1cccc(-c2nc(Nc3n[nH]c(C4CC4)n3)sc2-c2ccncc2)c1 [Compound 26, 3-{2-[(5-Cyclopropyl-1H-1,2,4-Triazol-3-Yl)Amino]-5-(Pyridin-4-Yl)-1,3-Thiazol-4-Yl}Benzonitrile] | 0.7 | 0.8 | > 30000 |  |
| Cc1cncnc1-c1sc(Nc2n[nH]c(C3CC3)n2)nc1-c1cccc(C#N)c1 [Compound 27, 3-{2-[(5-Cyclopropyl-1H-1,2,4-Triazol-3-Yl)Amino]-5-(5-Methylpyrimidin-4-Yl)-1,3-Thiazol-4-Yl}Benzonitrile] | 1.7 | 20.7 | > 30000 |  |
| Cn1cc(-c2sc(Nc3n[nH]c(C4CC4)n3)nc2-c2cccc(C#N)c2)ccc1=O [Compound 29, 3-{2-[(5-Cyclopropyl-1H-1,2,4-Triazol-3-Yl)Amino]-5-(1-Methyl-6-Oxo-1,6-Dihydropyridin-3-Yl)-1,3-Thiazol-4-Yl}Benzonitrile] | 0.4 | 4.8 | > 30000 | 1.1 |
